Data on 4 molecules can be found in paper PMC9863136, “Synthesis and DNase I Inhibitory Properties of New Squaramides” (Molecules, 2023).

The IC50 is the concentration at which inhibition is half-maximal. The melting point is the temperature of the solid-liquid transition.

Series [1] concerns the target bovine pancreatic DNase I (Bos taurus, UniProt P00639). Kind of series: in vitro DNase I inhibition assay (spectrophotometric, absorbance of oligonucleotides at 260 nm). It is filed as biochemical. The protocol: Compounds 3a–c were included in an in vitro DNase I inhibition assay.
Evaluation of DNase I inhibition. In vitro determination of the inhibitory activity of compounds 3a–c against bovine pancreatic DNase I was performed using the spectrophotometric method described by Kolarević et al., which is based on measuring the absorbance of the formed oligonucleotides at 260 nm.

bovine pancreatic DNase I, sequence (P00639 23-282): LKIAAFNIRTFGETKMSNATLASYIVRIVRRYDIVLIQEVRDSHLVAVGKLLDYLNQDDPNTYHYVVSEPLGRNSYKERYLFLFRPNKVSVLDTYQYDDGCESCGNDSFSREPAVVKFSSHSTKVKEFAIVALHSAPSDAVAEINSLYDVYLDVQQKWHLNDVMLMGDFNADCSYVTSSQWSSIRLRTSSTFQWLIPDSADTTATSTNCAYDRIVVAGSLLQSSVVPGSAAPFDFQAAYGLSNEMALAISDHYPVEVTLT

`CN(C)c1ccc(C(=C2C=CC(=[N+](C)C)C=C2)c2ccc(N(C)C)cc2)cc1` [crystal violet, reference compound] returned an IC50 in series [1] of 358 ± 40.7 µM.

For the molecule `CCOc1c(NC(C)Cc2cccnc2)c(=O)c1=O` (centres unmarked) [Compound 3c, 3-Ethoxy-4-((1-(pyridin-3-yl)propan-2-yl)amino)cyclobut-3-ene-1,2-dione], the IC50 in series [1] came to 48 ± 7.98 µM. In the case of `CCOc1c(NCCc2cccnc2)c(=O)c1=O` [Compound 3a], the melting point was 139.8 to 141.2 °C. The molecule further gave a half-maximal inhibitory concentration (IC50) in series [1] of 54.5 ± 8.07 µM. In series [1], `CCOc1c(NCCc2ccncc2)c(=O)c1=O` [Compound 3b] displayed an IC50 of 57.8 ± 9.67 µM.
